Results on 16 compounds are retold here after patent publication US5447957A, “Anti-inflammatory compounds” (SmithKline Beecham Corp., priority 1994, dated 1995).

SMILES strings stand for the structures. Where two headings read alike, the source gives them in different places.

In one data set the test system is CoA-IT. As to the kind of experiment: Assay (b): CoA-IT activity in U937 cell microsomes. It counts as biochemical, human. To be noted: for inhibition of CoA-IT activity in the microsomal CoA-IT assay: generally at 50 μM or less. An excerpt: Assay (b): CoA-IT Activity
The following is a method to measure CoA-IT activity and the effects of compounds on CoA-IT activity. The assay is based upon mixing cellular material containing CoA-IT activity with a stable lyso phospholipid such as […] and measuring the production of phospholipid product such as […] occurring in the absence of added CoA or CoA-fatty acids.
Any inflammatory cell that contains high levels of CoA-IT activity can be used, such as neutrophils, macrophages or cell lines such as U937 cells. […] Cells were grown without differentiation (basal state) by any agent, such as dimethyl sulfoxide. As used herein, "inflammatory cells" include, but are not limited to neutrophils, macrophages, monocytes, lymphocytes, eosinophils, basophils, and mast cells.
Microsomes were prepared using standard techniques. In this case, cells were washed with a buffer of 250 mM sucrose, 10 mM Tris, 1 mM EGTA, 1 mM MgCl2, pH 7.4 and ruptured by N2 cavitation (750 psi, 10 minutes). The ruptured cells were centrifuged 1000× g, 5 minutes. The resulting supernatant was centrifuged at 20,000×g,~20 minutes. Microsomes were prepared from this supernatant by centrifugation at 100,000× g, 60 minutes. The resulting pellet was washed once with assay buffer (150 mM NaCl, 10 mM Na2 KPO4, 1 mM EGTA, pH 7.4), recentrifuged and the pellet resuspended in assay buffer (4-20 mg protein/ml) and was stored at -80° C. until assayed.
CoA-IT activity was measured in 1.5 ml centrifuge tubes in a total volume of 100 ul. Microsomes were diluted in assay buffer to the desired protein concentration (6-20 ug/tube). The reaction was initiated by addition of [3H] 1-alkyl-2-lyso-sn-glycero-3-phosphocholine (GPC)(~0.1 uCi/tube) and 1 μM final cold 1-alkyl-2-lyso-GPC in assay buffer with 0.25 mg/ml fatty acid-poor bovine serumalbumin (BSA) (Calbiochem, La Jolla, Calif.). [3H]1-alkyl-2-lyso-GPC, approximately 50 Ci/mmol, was from NEN-Dupont (Boston, Mass.) and cold 1-alkyl-2-lyso-GPC was from Biomol (Plymouth Meeting, Penn.). Microsomes were pretreated with desired agents for the desired time (10 minutes) before the addition of [3H]1-alkyl-2-lyso-GPC. The reaction was run for the desired time (10 minutes) at 37° C. The reaction was stopped and the lipids extracted by addition of 100 ul of chloroform:methanol (1:2, v/v) followed by 100 ul of chloroform and 100 ul of 1M KCI. The samples were vortexed and centrifuged at high speed in a microfuge for 2-3 minutes. An aliquot of the chloroform-extracted materials were separated, usually by TLC in chloroform/methanol/acetic acid/water (50:25:8:4, v/v), visualized by radioscanning (Bioscan) and the product, [3H] 1-alkyl-2-acyl-GPC, was scraped and quantified by liquid scintillation spectroscopy. […] Other methods can be used to separate substrate from product, including but not limited to column chromatography, affinity chromatography and post reaction derivitization.

The test system of a further data set is human monocytes. As to the kind of experiment: Assay (f): stimulated eicosanoid (PGE2, LTC4) release by human monocytes. The data set is classed as cell-based. To be noted: Monocyte, 0.25 h, A23187 1 μM, 15 min. Here is the method: Assay (f): Measurement of stimulated eicosanoid release by human monocytes.
Leukocyte-rich leukopaks obtained from Biological Specialties (Lansdale, Pa.) were collected from male volunteers who were not taking anti-inflammatory drugs. Leukopaks were centrifuged (90× g for 15 min) twice to remove the platelet-rich plasma. The cell pellet was washed by centrifugation and resuspended in HBSS without Ca^2+ or Mg^2+. Histopaque 1077 was layered under the cell suspension and centrifuged at 400× g for 30 min to obtain the buffy coat. The interfacial buffy coat, containing monocytes and lymphocytes, was removed and saved. The buffy coat was washed twice with HBSS without Ca^2+ or Mg^2+ by centrifugation. The cell pellet (4-6×10^8 cells/30 mls) was resuspended in iso-osmotic media (RPMI-1640, 10% heat inactivated fetal bovine serum (FBS), 0.2 mM L-glutamine, 2.5 mM HEPES) and layered over an equal volume of 46% Percol mixture (10X PBS/Percol; 9.25/0.75) and 54% iso-osmotic media and centrifuged for 30 min at 1000× g (Marshall and Roshak, Biochem. Cell Biol. 71: 331-339, 1993). The monocyte population located at the interface of the Percoll gradient was removed and washed twice in HBSS without Ca^2+ or Mg^2+.
Monocytes (5×10^6 /ml) were incubated as a suspension in serum-free RPMI- 1640 medium containing the vehicle DMSO (<1%) or drug for 30 min at […] after which vehicle or stimuli was added for the indicated time. The stimulating agent is solubilized in DMSO and appropriate vehicle controls were included in all experiments. The amount of stimuli was chosen from the linear portion of a concentration versus product curve usually representing 60-80% maximal stimulation over the indicated incubation time at 37° C. (A23187, 1 μM,(15 min). The reaction was terminated by reduction of pH through addition of citric acid and centrifugation (10 min, 400× g, 4° C.). Cell viability was monitored before and after experiments using trypan blue exclusion. The cell-free media was decanted and stored at -70° C. until analyzed. Prostaglandin E2 and LTC4 were directly measured in cell-free media using enzyme immunoassay (EIA) kits purchased from Caymen Chemical Co. (Ann Arbor, Mich.). Sample or standard dilutions were made with appropriate media and analyzed in triplicate. Results were obtained by extrapolation from a standard curve prepared in the media and expressed as pg or ng/ml of sample.

For data set [1], the system named is Arachidonic acid induced ear inflammation. As to the kind of experiment: Assay (h): Arachidonic acid induced ear inflammation (ear edema and MPO). The data set is classed as in vivo, mouse. The settings on record: topical; doses dexamethasone 0.2, scalaradial 0.1, WY 50,295 0.3 (unit not given). How it is done:
(§1) Male Balb/c inbred mice were obtained from Charle River Breeding Laboratories (Kingston, N.Y.). Within a single experiment mice (22-25 g) were age-matched. These in vivo experiments typically involved use of 5-6 animals/group.
On the day of the assay, partially thawed ear tissues were minced and then homogenized (10% w/v) with a Tissumizer homogenizer (Tekmar Co.) in 50 mM phosphate buffer (pH 6) containing 0.5% HTAB. The tissue homogenates were taken through three cycles of freeze-thaw, followed by brief sonication (10 sec). The method of Bradley et al. was used with modifications as described. […] Supernatant MPO activity was quantified kinetically (change in absorbance measured over 3 min, sampled at 15-sec intervals) using a Beckman DU-7 spectrophotometer and a Kinetics Analysis package (Beckman Instruments, Inc.). One unit of MPO activity is defined as that degrading one micromole of peroxide per minute at 25° C.
Arachidonic acid is dissolved in acetone (1 mg/ear) to the left ear of BALB/c male mice. The thickness of both ears was measured with a constant pressure thickness guage 1 hour after treatment and the data expressed as the change in thickness between treated and untreated ears. Test compounds or vehicle are given at the time of AA applciation. The inflammatory cell infiltration is measured by MPO activity as described above in the TPA ear edema assay. After the edema measurements are made, the inflamed ears are removed and assayed for MPO activity.

Data set [2] has as its system TPA-induced Mouse Ear Inflammation. As to the kind of experiment: Assay (g): TPA-induced Mouse Ear Inflammation (ear edema and MPO). The data set is classed as in vivo. The settings on record: topical; doses dexamethasone 0.2, scalaradial 0.1, WY 50,295 0.3 (unit not given).
Excerpt: The ability of compounds that inhibit CoA-IT and/or PLA2 to affect in vivo inflammatory responses may be assessed. Inflammatory responses are induced in the mouse ear by the topical application of a pro-inflammatory agent, such as 12-0-tetradecanoylphorbol 13-acetate (assay g). This produces an edematous response, as measured by increases in ear thickness, as well as increased inflammatory cellular infiltrate, as measured by increases in myeloperoxidase activity (as described in the methods). To further validate the mechanism of action inflammation induced by the direct adminstration of arachidonic acid can be used. In this case compounds altering arachidonic acid mobilization or liberation should be with our effect.
as §1
TPA (12-0-tetradecanoylphorbol 13-acetate) (Sigma Chemical Company) in acetone ([…]) was applied to the inner and outer surfaces of the left ear of BALB/c male mice. The thickness of both ears was then measured with a dial micrometer (Mitutoyo, Japan) at both 2 and 4 hours after treatment, and the data expressed as the change in thickness (10^-3 cm) between treated and untreated ears. […] After measuring the edema, the inflammed left ears were removed and stored at -70° C. until they were assayed for MPO (myeloperoxidase) activity where appropriate.
On the day of the assay, partially thawed ear tissues were minced and then homogenized (10% w/v) with a Tissumizer homogenizer (Tekmar Co.) in 50 mM phosphate buffer (pH 6) containing 0.5% HTAB. The tissue homogenates were taken through three cycles of freeze-thaw, followed by brief sonication (10 sec). The method of Bradley et al. was used with modifications as described. The appearance of a colored product from the MPO-dependent reaction of o-dianisidine (0.167 mg/ml; Sigma) and hydrogen peroxide (0.0005%; Sigma) was measured spectrophotometrically at 460 nm. Supernatant MPO activity was quantified kinetically (change in absorbance measured over 3 min, sampled at 15-sec intervals) using a Beckman DU-7 spectrophotometer and a Kinetics Analysis package (Beckman Instruments, Inc.). One unit of MPO activity is defined as that degrading one micromole of peroxide per minute at 25° C.
Statistical analysis was done using Student's "t" test. The ED50 are values which cause a 50% inhibition of the inflammatory response and are calculated by regression analysis of the dose response data.

In the case of `CCCCCCCCNC(=O)Nc1cc(C(F)(F)F)ccc1Oc1ccccc1C(=O)O` [2-[2-[3-(Octyl)ureido]-4-trifluoromethylphenoxy]benzoic acid], the “inhibition of CoA-IT activity in the microsomal CoA-IT assay” value (“inhibition of CoA-IT activity” below) in the data set on CoA-IT was “inhibit CoA-IT activity”.

`O=S1(=O)CCn2c1nc(-c1ccc(F)cc1)c2-c1ccncc1` [6-(4'-Fluorophenyl)-5-(4-pyridyl)2,3-dihydroimidzo-[2,1-b]thiazole-dioxide]: the “effect on CoA-IT activity” value in the data set on CoA-IT (at concentrations up to 100 μM) was “no effect”.

In the case of `Fc1ccc(-c2nc3n(c2-c2ccncc2)CCS3)cc1` [6-(4'-Fluorophenyl)-5-(4-pyridyl)-2,3-dihydroimidzo-[2,1-b]thiazole], the “effect on CoA-IT activity” value in the data set on CoA-IT (at concentrations up to 100 μM) is on record as “no effect”.

For `Cc1cc(C(C)(C)C)c(O)c(C(C)(C)C)c1` [BHT], the “effect on CoA-IT activity” value with CoA-IT (at concentrations up to 100 μM) is recorded as “no effect”.

Consider `CN(C)CCC=C1c2ccccc2COc2ccccc21` [Doxepine], for which the “effect on CoA-IT activity” value in the data set with CoA-IT (at concentrations up to 100 μM) was “did not inhibit”.

`O=C(Nc1ccc(Br)cc1)Nc1cc(C(F)(F)F)ccc1Oc1ccccc1C(=O)O` [Example 1, 2-[2-[3-(4-Bromophenyl)ureido]-4-(trifluoromethyl)phenoxy]benzoic acid]: the half-inhibitory concentration (IC50) in the data set with human monocytes (read-out: IC50 for LTC4 release) was 0.3 µM; in the data set on human monocytes (read-out: IC50 of PGE2 release), over 3 µM. Further, the “inhibition of CoA-IT activity” value in the data set with CoA-IT is reported as “inhibit CoA-IT activity”.

Regarding `CC(C)(C)CC(C)(C)c1ccc(Oc2ccc(C(F)(F)F)cc2NC(=O)Nc2cc(C(F)(F)F)cc(C(F)(F)F)c2)c(C(=O)O)c1` [Example 4, 2-[2-[3-[3,5-Bis (trifluoromethyl)phenyl]ureido]-4-trifluoromethylphenoxy]-5-(1,1,3,3-tetramethylbutyl)benzoic acid], the “inhibition of CoA-IT activity” value with CoA-IT is on record as “inhibit CoA-IT activity”.

As to `CCC(C)(C)c1ccc(Oc2ccc(C(F)(F)F)cc2NC(=O)Nc2cc(C(F)(F)F)cc(C(F)(F)F)c2)c(C(=O)O)c1` [Example 5, 2-[2-[3-[3,5-Bis (trifluoromethyl)phenyl]ureido]-4-trifluoromethylphenoxy]-5-(1,1,-dimethylpropyl)benzoic acid], in the data set on CoA-IT, the “inhibition of CoA-IT activity” value was “inhibit CoA-IT activity”.

As for `COC(=O)c1ccccc1Oc1ccc(C(F)(F)F)cc1NC(=O)Nc1cc(C(F)(F)F)cc(C(F)(F)F)c1` [Example 8, Methyl 2-[2-[3-[3,5-Bis(trifluoromethyl)phenyl]ureido]-4-trifluoromethylphenoxy]benzoate], the “inhibition of CoA-IT activity” value in the data set with CoA-IT was “inhibit CoA-IT activity”.

In the case of `C[C@H](C(=O)O)c1ccc2cc(OCc3ccc4ccccc4n3)ccc2c1` [WY 50,295], in data set [1], the “AA % change in edema” value is listed as -50% and the “change in MPO for AA” value was -90. Further, the “TPA % change in edema” value in data set [2] is given as -18%.

Turning to `COc1cccc2c1cc([N+](=O)[O-])c1c(C(=O)O)cc3c(c12)OCO3` [aristolochic acid], the “effect on CoA-IT activity” value in the data set with CoA-IT (at concentrations up to 500 μM) is given as “no effect”.

With `C[C@@H]1C[C@H]2[C@@H]3CCC4=CC(=O)C=C[C@]4(C)[C@@]3(F)[C@@H](O)C[C@]2(C)[C@@]1(O)C(=O)CO` [dexamethasone], in data set [1], the “AA % change in edema” value is -10% and the “change in MPO for AA” value is 0. Moreover, in data set [2], the “TPA % change in edema” value was -50% and the “change in MPO for TPA model” value is -54.

With `COc1ccc2c(c1)c(CC(=O)O)c(C)n2C(=O)c1ccc(Cl)cc1` [indomethicin], the “effect on CoA-IT activity” value in the data set on CoA-IT (at concentrations up to 100 μM) is on record as “no effect”.

Regarding `COc1ccc2cc([C@H](C)C(=O)O)ccc2c1` [naproxen], the “effect on CoA-IT activity” value with CoA-IT (at concentrations up to 100 μM) is reported as “no effect”.

As to `CCN(CC)CCCC(C)Nc1c2ccc(Cl)cc2nc2ccc(OC)cc12` (centres unmarked) [quinacrine], the “effect on CoA-IT activity” value with CoA-IT (at concentrations up to 500 μM) is “no effect”.

As to `CC(=O)O[C@H]1C[C@@H]2[C@@]3(C)CCCC(C)(C)[C@@H]3CC[C@@]2(C)[C@@H]2CC=C(C=O)[C@H](C=O)[C@@]12C` [scalaradial], the “AA % change in edema” value in data set [1] was -11%.

By IC50 is commonly meant the concentration that inhibits the measured activity by half.
